Test results: patent US20240199546A1, “INHIBITORS OF SOLUTE CARRIER FAMILY 6A MEMBER 19 (SLC6A19) AND METHODS OF USE THEREOF” (Maze Therapeutics, Inc., priority 2022, published 2024)

Columns and labels:
[1] = target: T1, human SLC6A19 and TMEM27 (Homo sapiens, UniProt Q695T7); assay: Radiolabelled (3H) leucine uptake in CHO cells with doxycycline-inducible expression of human SLC6A19 and TMEM27 (Example B-1); assay type: cell-based; conditions: CHO cells with doxycycline-inducible expression of human SLC6A19 and TMEM27, read-out: SLC6A19_Radioligand Uptake Assay IC50
T1 construct: expressed in transfected cells
T1 sequence (Q695T7 1-634): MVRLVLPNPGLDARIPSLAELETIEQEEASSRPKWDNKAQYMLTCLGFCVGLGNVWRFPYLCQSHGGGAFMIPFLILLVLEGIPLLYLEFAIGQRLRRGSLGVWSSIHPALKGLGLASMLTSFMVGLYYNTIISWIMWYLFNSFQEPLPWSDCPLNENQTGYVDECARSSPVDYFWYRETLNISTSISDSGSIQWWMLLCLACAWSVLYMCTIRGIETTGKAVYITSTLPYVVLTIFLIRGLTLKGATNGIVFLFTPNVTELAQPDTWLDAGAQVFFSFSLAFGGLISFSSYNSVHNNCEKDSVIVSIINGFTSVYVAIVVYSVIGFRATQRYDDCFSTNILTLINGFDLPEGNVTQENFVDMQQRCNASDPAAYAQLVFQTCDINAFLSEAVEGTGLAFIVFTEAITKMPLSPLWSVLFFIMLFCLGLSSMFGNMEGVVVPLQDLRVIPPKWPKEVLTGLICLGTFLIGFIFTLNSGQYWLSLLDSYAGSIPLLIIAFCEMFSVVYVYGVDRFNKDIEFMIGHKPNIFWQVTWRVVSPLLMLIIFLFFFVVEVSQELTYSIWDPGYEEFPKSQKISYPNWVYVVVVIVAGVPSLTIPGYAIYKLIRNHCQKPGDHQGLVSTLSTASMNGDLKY
T1 sequence (Q9HBJ8 15-222 partner): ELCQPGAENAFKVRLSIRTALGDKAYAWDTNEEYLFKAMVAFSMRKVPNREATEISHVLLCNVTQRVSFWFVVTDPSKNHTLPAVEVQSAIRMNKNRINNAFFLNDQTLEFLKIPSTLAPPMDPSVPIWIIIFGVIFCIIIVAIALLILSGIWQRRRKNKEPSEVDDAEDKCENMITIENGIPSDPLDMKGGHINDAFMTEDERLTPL
Summary of the method: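 CHO cells were induced with doxycycline for 18 h at 37 °C, washed in HBSS, then exposed to compounds for 1 h: 8-point, 3-fold dilutions in duplicate, 0.5% DMSO final. Uptake measured by scintillation counting after 2 h shaking. Activity normalized with positive control as 0% and DMSO as 100%.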

[2] = target: T1, human SLC6A19 and TMEM27; assay: 13C6,15N-isoleucine uptake in CHO cells with doxycycline-inducible expression of human SLC6A19 and TMEM27, RapidFire mass spectrometry (Example B-2); assay type: cell-based; conditions: read-out: SLC6A19_RapidFire Uptake Assay IC50
Summary of the method: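 CHO cells induced overnight with doxycycline to express human SLC6A19 plus TMEM27; 20 min preincubation with compound (10-point 2-fold series, duplicate) at 37 °C in HEPES buffer pH 7.2, then 20 min with 13C6,15N-isoleucine. Intracellular label quantified by RapidFire MS against 13C-leucine standard; positive control defined 100% inhibition.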

An IC50 [1] of 1.68 µM and an IC50 [2] of 1.22 µM were found for `CC1(C(=O)NCc2cc3ccc(OCCc4cscn4)cc3[nH]2)CC1` [Compound 191, 1-methyl-N-((6-(2-(thiazol-4-yl)ethoxy)-1H-indol-2-yl)methyl)cyclopropane-1-carboxamide] in this work.

An IC50 [1] of 0.283 µM and an IC50 [2] of 0.521 µM were found for `CC(=O)NCc1cc2cc(C)c(OCc3ccon3)cc2[nH]1` [Compound 235, N-((6-(isoxazol-3-ylmethoxy)-5-methyl-1H-indol-2-yl)methyl)acetamide] in this work.

An IC50 [1] of 0.148 µM and an IC50 [2] of 0.0357 µM were found for `CCC(=O)NCc1cc2cc(Cl)c(OCc3cccc(F)n3)cc2[nH]1` [Compound 494, N-((5-chloro-6-((6-fluoropyridin-2-yl)methoxy)-1H-indol-2-yl)methyl)propionamide] in this work.

An IC50 [1] of 1.43 µM and an IC50 [2] of 0.502 µM were found for `Cc1cncc(COc2cc3[nH]c(CNC(=O)C4(C)CC4)cc3cc2Cl)c1` [Compound 23, N-((5-chloro-6-((5-methylpyridin-3-yl)methoxy)-1H-indol-2-yl)methyl)-1-methylcyclopropane-1-carboxamide] in this work.

An IC50 [1] of 0.36 µM and an IC50 [2] of 0.783 µM were found for `O=C(NCc1cc2ccc(OCc3ccon3)cc2[nH]1)N1CCC1` [Compound 122, N-((6-(isoxazol-3-ylmethoxy)-1H-indol-2-yl)methyl)azetidine-1-carboxamide] in this work.

An IC50 [1] of 0.288 µM and an IC50 [2] of 0.468 µM were found for `CC(=O)NCc1cc2cc(Cl)c(OCc3cnn(C)n3)cc2[nH]1` [Compound 221, N-((5-chloro-6-((2-methyl-2H-1,2,3-triazol-4-yl)methoxy)-1H-indol-2-yl)methyl)acetamide] in this work.

An IC50 [1] of 0.295 µM and an IC50 [2] of 0.164 µM were found for `Cc1cc2cc(CNC(=O)N3CCCC3)[nH]c2cc1OCc1cscn1` [Compound 531, N-((5-methyl-6-(thiazol-4-ylmethoxy)-1H-indol-2-yl)methyl)pyrrolidine-1-carboxamide] in this work.

An IC50 [1] of 0.196 µM and an IC50 [2] of 0.125 µM were found for `CC1(C(=O)NCc2cc3cc(Cl)c(OCc4ccno4)cc3[nH]2)CC1` [Compound 326, N-((5-chloro-6-(isoxazol-5-ylmethoxy)-1H-indol-2-yl)methyl)-1-methylcyclopropane-1-carboxamide] in this work.

An IC50 [1] of 0.08 µM and an IC50 [2] of 0.044 µM were found for `CCC(=O)NCc1cc2cc(Cl)c(OCc3ccon3)cc2[nH]1` [Compound 129, N-((5-chloro-6-(isoxazol-3-ylmethoxy)-1H-indol-2-yl)methyl)propionamide] in this work.

An IC50 [1] of 0.154 µM and an IC50 [2] of 0.031 µM were found for `Cc1cc(CCc2cc3[nH]c(CNC(=O)C4(C)CC4)cc3cc2Cl)no1` [Compound 148] in this work.

An IC50 [1] of 0.157 µM and an IC50 [2] of 0.204 µM were found for `CC(=O)NCc1cc2cc(Cl)c(NCc3cscn3)cc2[nH]1` [Compound 229, N-((5-chloro-6-((thiazol-4-ylmethyl)amino)-1H-indol-2-yl)methyl)acetamide] in this work.

An IC50 [1] of 0.195 µM and an IC50 [2] of 0.257 µM were found for `CC(C)C(=O)NCc1cc2cc(Cl)c(OCc3cocn3)cc2[nH]1` [Compound 500, N-((5-chloro-6-(oxazol-4-ylmethoxy)-1H-indol-2-yl)methyl)isobutyramide] in this work.

An IC50 [1] of 0.45 µM and an IC50 [2] of 1.32 µM were found for `CC1CCCN1C(=O)NCc1cc2ccc(OCc3ccon3)cc2[nH]1` (centres unmarked) [Compound 124, N-((6-(isoxazol-3-ylmethoxy)-1H-indol-2-yl)methyl)-2-methylpyrrolidine-1-carboxamide] in this work.

An IC50 [1] of 0.1 µM and an IC50 [2] of 0.0545 µM were found for `CCC(=O)NCc1cc2cc(F)c(OCc3cc(C)no3)cc2[nH]1` [Compound 548, N-((5-fluoro-6-((3-methylisoxazol-5-yl)methoxy)-1H-indol-2-yl)methyl)propionamide] in this work.

An IC50 [1] of 0.17 µM and an IC50 [2] of 0.079 µM were found for `CC1(C(=O)NCc2cc3cc(Cl)c(OCc4ccc(F)cn4)cc3[nH]2)CC1` [Compound 28, N-((5-chloro-6-((5-fluoropyridin-2-yl)methoxy)-1H-indol-2-yl)methyl)-1-methylcyclopropane-1-carboxamide] in this work.

An IC50 [1] of 1.46 µM and an IC50 [2] of 0.781 µM were found for `CC1(C(=O)NCc2cc3cc(Cl)c(OCCC4CC(F)(F)C4)cc3[nH]2)CC1` [Compound 393, N-((5-chloro-6-(2-(3,3-difluorocyclobutyl)ethoxy)-1H-indol-2-yl)methyl)-1-methylcyclopropane-1-carboxamide] in this work.

An IC50 [1] of 0.13 µM and an IC50 [2] of 0.117 µM were found for `CNC(=O)NCc1cc2cc(Cl)c(OCc3cscn3)cc2[nH]1` [Compound 209, 1-((5-chloro-6-(thiazol-4-ylmethoxy)-1H-indol-2-yl)methyl)-3-methylurea] in this work.

An IC50 [1] of 0.602 µM and an IC50 [2] of 0.615 µM were found for `CC1(C(=O)NCc2cc3ccc(OCc4ccc(F)nc4)cc3[nH]2)CC1` [Compound 34, N-((6-((6-fluoropyridin-3-yl)methoxy)-1H-indol-2-yl)methyl)-1-methylcyclopropane-1-carboxamide] in this work.

An IC50 [1] of 0.06 µM and an IC50 [2] of 0.036 µM were found for `CCC(=O)NCc1cc2cc(Cl)c(OCc3cscn3)cc2[nH]1` [Compound 146, N-((5-chloro-6-(thiazol-4-ylmethoxy)-1H-indol-2-yl)methyl)propionamide] in this work.

An IC50 [1] of 0.192 µM and an IC50 [2] of 0.154 µM were found for `CCC(=O)NCc1cc2cc(C)c(OCc3cscn3)cc2[nH]1` [Compound 529, N-((5-methyl-6-(thiazol-4-ylmethoxy)-1H-indol-2-yl)methyl)propionamide] in this work.

An IC50 [1] of 0.426 µM and an IC50 [2] of 0.833 µM were found for `Cc1nc(COc2cc3[nH]c(CNC(=O)C4CC4)cc3cc2F)co1` [Compound 549, N-((5-fluoro-6-((2-methyloxazol-4-yl)methoxy)-1H-indol-2-yl)methyl)cyclopropanecarboxamide] in this work.

An IC50 [1] of 0.117 µM and an IC50 [2] of 0.062 µM were found for `Cc1cnc(COc2cc3[nH]c(CNC(=O)C4(C)CC4)cc3cc2Cl)o1` [Compound 70, N-((5-chloro-6-((5-methyloxazol-2-yl)methoxy)-1H-indol-2-yl)methyl)-1-methylcyclopropane-1-carboxamide] in this work.

An IC50 [1] of 0.171 µM and an IC50 [2] of 0.208 µM were found for `CCC(=O)NCc1cc2cc(C)c(OCc3ccon3)cc2[nH]1` [Compound 530, N-((6-(isoxazol-3-ylmethoxy)-5-methyl-1H-indol-2-yl)methyl)propionamide] in this work.

An IC50 [1] of 0.07 µM and an IC50 [2] of 0.027 µM were found for `CC1(C(=O)NCc2cc3cc(Cl)c(OCc4ccco4)cc3[nH]2)CC1` [Compound 66, N-((5-chloro-6-(furan-2-ylmethoxy)-1H-indol-2-yl)methyl)-1-methylcyclopropane-1-carboxamide] in this work.

An IC50 [1] of 0.145 µM and an IC50 [2] of 0.0518 µM were found for `CC1(C(=O)NCc2cc3cc(Cl)c(CCn4cccn4)cc3[nH]2)CC1` [Compound 590, N-((6-(2-(1H-pyrazol-1-yl)ethyl)-5-chloro-1H-indol-2-yl)methyl)-1-methylcyclopropane-1-carboxamide] in this work.

An IC50 [1] of 1.36 µM and an IC50 [2] of 0.732 µM were found for `CC1(C(=O)NCc2cc3cc(F)c(OCc4ccc5ccoc5c4)cc3[nH]2)CC1` [Compound 460, N-((6-(benzofuran-6-ylmethoxy)-5-fluoro-1H-indol-2-yl)methyl)-1-methylcyclopropane-1-carboxamide] in this work.

An IC50 [1] of 0.599 µM and an IC50 [2] of 1.09 µM were found for `O=C(NCc1cc2cc(F)c(NCc3ccon3)cc2[nH]1)N1CCCC1` [Compound 471, N-((5-fluoro-6-((isoxazol-3-ylmethyl)amino)-1H-indol-2-yl)methyl)pyrrolidine-1-carboxamide] in this work.

An IC50 [1] of 0.342 µM and an IC50 [2] of 0.534 µM were found for `O=C(NCc1cc2cc(F)c(OCc3ccno3)cc2[nH]1)N1CCC1` [Compound 401, N-((5-fluoro-6-(isoxazol-5-ylmethoxy)-1H-indol-2-yl)methyl)azetidine-1-carboxamide] in this work.

An IC50 [1] of 1.47 µM and an IC50 [2] of over 2.05 µM were found for `CC1(C(=O)NCc2cc3cc(Cl)c(OCc4cn5ccccc5n4)cc3[nH]2)CC1` [Compound 632, N-((5-chloro-6-(imidazo[1,2-a]pyridin-2-ylmethoxy)-1H-indol-2-yl)methyl)-1-methylcyclopropane-1-carboxamide] in this work.

An IC50 [1] of 3.91 µM and an IC50 [2] of over 50 µM were found for `CC1(C(=O)NCc2cc3cc(Cl)c(OCc4cscn4)c(Cl)c3[nH]2)CC1` [Compound 344, N-((5,7-dichloro-6-(thiazol-4-ylmethoxy)-1H-indol-2-yl)methyl)-1-methylcyclopropane-1-carboxamide] in this work.

An IC50 [1] of 2.67 µM and an IC50 [2] of 3.02 µM were found for `CN(Cc1cn[nH]c1)C(=O)NCc1cc2ccc(OCc3cscn3)cc2[nH]1` [Compound 628, 1-((1H-pyrazol-4-yl)methyl)-1-methyl-3-((6-(thiazol-4-ylmethoxy)-1H-indol-2-yl)methyl)urea] in this work.
